{"source": "patent US20240261302A1", "about": "“METHODS OF TREATING NEURODEGENERATIVE DISEASES OR CONDITIONS” (FloraScience Inc., priority 2023, published 2024)", "key": {"HT22 cells [1]": {"tested_on": "HT22 cells", "assay": "Oxytosis Assay (glutamate-induced cell death, MTT)", "type": "cell-based, mouse", "description": "Oxytosis Assay. HT22 cells were seeded at 3,000 cells/well in 96-well tissue culture plates in DMEM plus 10% FBS and 1% antibiotics. After 24 hr of plating, the cells were pretreated with different concentrations of the test compounds or a vehicle control for 1 hr followed by coincubation with 5 mM glutamate to initiate the cell death cascade. After 16 hr of treatment, cell viability was measured by the 3−(4,5-dimethylthiazol-2-yl)-2,5-diphenyltetrazolium bromide (MTT) assay. Optical absorbance was measured at 570 nm on a SpectraMax M5 microplate reader. Samples were analyzed in eight to sixteen wells per independent experiment (n=8-16). Results were presented as the percentage of the controls with vehicle alone."}, "HT22 cells [2]": {"tested_on": "HT22 cells", "assay": "Oxytosis/ferroptosis assay with erastin (Table 2)", "type": "cell-based", "conditions": "Mus musculus, HT-22; erastin as inducer; method not given; read-out: Observed EC50 erastin"}, "HT22 cells [3]": {"tested_on": "HT22 cells", "assay": "Ferroptosis Assay (RSL3-induced cell death, MTT)", "type": "cell-based, mouse", "conditions": "for EC50: Mus musculus, HT-22, MTT", "description": "Ferroptosis Assay: HT22 cells were seeded at 3,000 cells/well in 96-well tissue culture plates in DMEM plus 10% FBS and 1% antibiotics. After 24 hr of plating, the cells were pretreated with different concentrations of test compounds or a vehicle control for 1 hr followed by coincubation with 50 nM RSL3 to induce the cell death cascade. After 16 hr of treatment, cell viability was measured by the MTT assay. Optical absorbance was measured at 570 nm on a SpectraMax M5 microplate reader. Samples were analyzed in eight to sixteen wells per independent experiment (n=8-16). Results were presented as the percentage of the controls with vehicle alone."}, "HT22 cells [4]": {"tested_on": "HT22 cells", "assay": "Reactive Oxygen Species Measurement (CellROX, MitoSOX)", "type": "cell-based, mouse", "description": "Reactive Oxygen Species Measurement. HT22 cells were seeded onto 96-well black walled plates at a density of 5,000 cells/well in DMEM supplemented with 10% FBS and 1% antibiotics. After the desired treatments, whole cell ROS and mitochondrial superoxide ROS were detected with CellROX Green reagent (Ex/Em=485/520 nm) and MitoSOX Red reagent (Ex/Em=510/580 nm), respectively. Experiments were performed according to the manufacturer's instructions. Fluorescence was measured on a SpectraMax M5 microplate reader. Data were normalized for total protein/well. Each condition was analyzed in sixteen wells per independent experiment (n=16). Results were presented as the percentage of the controls with vehicle alone. Results were verified by live-cell imaging under a fluorescence microscope."}, "[5]": {"assay": "Cell-free, liposome-based assay of lipid peroxidation (STY-BODIPY)", "type": "biochemical", "conditions": "test compounds 10 μM", "description": "For the cell-free, liposome-based assay, STY-BODIPY (1.5 μM) and liposomes of egg-PC (1 mM) (Avanti Polar Lipids Inc, Cat #840051P, AL) in TBS (pH 7.4) were added to an opaque 96-well plate. This was followed by the addition of test compounds (10 μM). The plate was incubated for 30 min at 37° C. and then vigorously mixed for 5 min. The autoxidation was initiated by the addition of V-70 (0.5 mM) (Fujifilm Wako, Cat #001-70078, Japan), followed by additional mixing for 5 min. Data were acquired at Ex/Em=488/518 nm every 15 min at 37° C. on a SpectraMax M5 microplate reader. Data were transformed into [ox-STY-BODIPY] by taking the raw fluorescent values of the saturated curve of control DMSO and dividing them by the initial concentration of reduced STY-BODIPY ([…]). Samples were analyzed in quadruplicate in four independent experiments (n=4)."}, "HT22 cells [6]": {"tested_on": "HT22 cells", "assay": "Seahorse XF Analysis (mitochondrial stress test) in HT22 cells", "type": "cell-based, mouse", "description": "Seahorse XF Analysis. The assay procedure was previously described. Cellular oxygen consumption rates (OCR) were assayed with a XF Cell Mito Stress Test Kit using a Seahorse XFe96 Extracellular Flux Analyzer (Seahorse Bioscience, North Billerica, MA). Complete Seahorse XF DMEM assay medium was supplemented with 10 mM glucose, 1 mM pyruvate and 2 mM L-glutamine, at pH 7.4. Mitochondrial ETC inhibitors were used at the following concentrations: 1.5 μM oligomycin, 2 μM FCCP, and 0.5 μM of a 1:1 mixture of rotenone and antimycin A. Analyses were conducted using Wave software and XF Report Generators (Agilent Technologies). The sensor cartridge for the XFe analyzer was hydrated overnight at 37° C. before the experiment. OCR data were normalized for total protein/well. Each condition was analyzed in 20-40 wells per independent experiment (n=20-40).\nFor HT22 cells, 3,000 cells/well were seeded onto the Seahorse XFe96 plates under normal culture condition as described above. The next day, cells were pretreated with CBN at the desired concentrations for 1 hr followed by addition of RSL3 (50 nM) and coincubation for 16 hr. Immediately before the assay, the culture medium in the plates was replaced with complete Seahorse XF DMEM assay medium. The plates were incubated for 1 hr at 37° C. prior to the XF Cell Mito Stress tests according to the manufacturer's instructions."}, "HT22 mt-GFP cells": {"tested_on": "HT22 mt-GFP cells", "assay": "Mitochondrial Network Morphology Analysis", "type": "cell-based, mouse", "description": "Mitochondrial Network Morphology Analysis. HT22 mt-GFP cells were seeded at 20,000 cells/well on glass coverslips in 24-well plates in DMEM supplemented with 10% FBS and 1% antibiotics. The following day, the cells were treated with the test compounds for the desired period of time. After rinsing with PBS, the cells on glass coverslips were fixed with 4% paraformaldehyde (pH 7.4) for 10 min at 37° C. After additional PBS rinses, the coverslips were mounted onto glass microslides with Fluoro-Gel (Electron Microscopy Sciences, Cat #17985-10). Z-stack images of fixed cells were acquired on a Zeiss LSM 880 rear port laser scanning confocal and Airyscan FAST microscope with ZEN Black software to trace and render cells in 3D. The mitochondrial network morphology parameters (n=20-25 cells/condition) were scored and analyzed with the MiNA module of ImageJ/Fiji software."}, "[7]": {"tested_on": "HT22 mt-GFP/mCherry-Parkin cells", "assay": "Cell viability after RSL3 with/without FCCP (CyQUANT DNA-based assay, fluorescence microscopy), mt-GFP/mCherry-Parkin cells", "design": "species or system mouse"}, "[8]": {"conditions": "cited from earlier work"}}, "note": "“Also recorded” adds a separate entry of the source."}
{"smiles": "CCCCCc1cc(O)c2c(c1)OC(C)(C)c1ccc(C)cc1-2", "note": "[CBN, 6,6,9-Trimethyl-3-pentyl-benzo[c]chromen-1-ol]", "values": [{"measurement": "glutamate-induced morphological changes", "setting": "HT22 cells [1]; 5 μM pretreatment 1 hr, then 5 mM glutamate 16 hr", "value": "effectively prevented"}, {"measurement": "EC50", "setting": "HT22 cells [1]; Mus musculus, HT-22, 16 h, read-out: EC50 against oxytosis/ferroptosis induced by 5 mM glutamate (FIG. 2G)", "value": 1.89, "unit": "µM"}, {"measurement": "EC50", "setting": "HT22 cells [2]", "value": 2.5, "unit": "µM"}, {"measurement": "RSL3-induced morphological changes", "setting": "HT22 cells [3]; 5 μM pretreatment 1 hr, then 50 nM RSL3 16 hr", "value": "effectively prevented"}, {"measurement": "neuroprotection against 50 nM RSL3", "setting": "HT22 cells [3]; HT22 cells, CBN 10 μM, data not shown", "value": "~100", "unit": "%"}, {"measurement": "EC50", "setting": "HT22 cells [3]; HT22 cells, 1 hr pretreatment, 50 nM RSL3, 16 hr, read-out: Observed EC50 RSL3", "value": 0.39, "unit": "µM"}, {"measurement": "EC50", "setting": "HT22 cells [3]; HT22 cells, 16 hr, read-out: EC50 against oxytosis/ferroptosis induced by 50 nM RSL3 (FIG. 2H)", "value": 0.69, "unit": "µM"}, {"measurement": "RSL3-induced ROS production at cellular and mitochondrial levels", "setting": "HT22 cells [4]; 50 nM RSL3, 16 hr", "value": "suppressed"}, {"measurement": "cellular and mitochondrial ROS (redox status), compound alone", "setting": "HT22 cells [4]; 5 μM, 16 hr", "value": "did not affect the redox status of cells or mitochondria"}, {"measurement": "inhibition of lipid peroxidation, cell-free", "setting": "[5]", "value": "showed no inhibition"}, {"measurement": "ATP production, compound alone", "setting": "HT22 cells [6]; 10 μM", "value": "partially reduced ATP production"}, {"measurement": "basal and maximal mitochondrial respiration, compound alone", "setting": "HT22 cells [6]; 10 μM", "value": "partially decreased both basal and maximal mitochondrial respiration"}, {"measurement": "mitochondrial respiration and ATP production with RSL3", "setting": "HT22 cells [6]; 10 μM pretreatment, RSL3 50 nM 16 hr", "value": "maintenance of mitochondrial respiration and ATP production"}, {"measurement": "RSL3-induced mitochondrial fragmentation", "setting": "HT22 mt-GFP cells; 50 nM RSL3", "value": "prevent the mitochondrial fragmentation"}, {"measurement": "individual and summed branch lengths of mitochondria", "setting": "HT22 mt-GFP cells; CBN alone", "value": "significantly increased"}, {"measurement": "mitochondrial footprints and network branches", "setting": "HT22 mt-GFP cells; CBN alone", "value": "no apparent effects"}, {"measurement": "protection against RSL3-induced cell death, no FCCP pretreatment", "setting": "[7]; 16 hr", "value": "strong and equivalent protection"}, {"measurement": "protection against RSL3 after FCCP pretreatment (mitochondria-depleted cells)", "setting": "[7]; FCCP 5 μM 24 hr, then 16 hr", "value": "failed to protect; also recorded: did not protect"}, {"measurement": "cell numbers after FCCP pretreatment, co-treatment with compound", "setting": "[7]; FCCP 24 hr, CBN additional 16 hr", "value": "did not further change the cell numbers"}, {"measurement": "bioavailability", "setting": "[8]; after oral or inhaled administration", "value": "10 to 40", "unit": "%"}, {"measurement": "brain penetrance", "setting": "[8]; animals and humans", "value": "good brain penetrance"}, {"measurement": "metabolic stability compared to THC", "setting": "[8]; human, in vivo", "value": "metabolically more stable"}]}
